Test results published in US8119588B2, “Hard surface cleaner compositions of sulfonated estolides and other derivatives of fatty acids and uses thereof” (Stepan Company, priority 2009, dated 2012).

Legend:
[1] = Surface activity by Kruss K12 tensiometer; type: physicochemical; conditions: 25° C. in deionized water
Method: The surface activity was measured using a Kruss K12 tensiometer at 25° C. in deionized water. The critical micelle concentration (CMC) and the surface tension at CMC are important properties for a surfactant. CMC indicates the minimum concentration of a surfactant that forms aggregates. […] The surface tension indicates how efficient a surfactant can reduce the surface energy of water. Lower surface tension is favorable for wetting and cleansing.

[2] = Coupling ability (hydrotrope requirement) with nonionic surfactants of different HLB; type: physicochemical
Method: Sodium xylene sulfonate (SXS) is often used as a hydrotrope to clarify cloudy formulations. […] In Table 2, the measurement of the amount of hydrotrope or surfactant needed to clear the solution was determined.
The compositions described in Table 2 are made in accordance with the following steps: • Add the water and trisodium citrate and mix until the solution is clear. Add BIO-SOFT® N25-9 slowly until the solution is homogeneous. Add BIO-SOFT® N25-3 and mix until the solution is homogeneous. If the final solution is cloudy, then continue adding the hydrotrope or surfactant and agitate until solution is clear.

CCCCCCCCCCCCOS(=O)(=O)[O-].[Na+] [STEPANOL WA-EXTRA, Sodium Lauryl Sulfate]
CMC [1]: 184.8 mg/L
Surface Tension @CMC [1]: 26.3 mN/m

Sodium Laureth Sulfate, 2EO [STEOL CS-230]
CMC [1]: 171 mg/L
Surface Tension @CMC [1]: 25 mN/m

Sodium Laureth Sulfate, 3EO [STEOL CS-330]
CMC [1]: 75 mg/L
Surface Tension @CMC [1]: 30 mN/m

Sodium xylene sulfonate [SXS]
Final appearance ([2]; after adding hydrotrope or surfactant to cloudy nonionic blend): clear
hydrotrope requirement (actives) ([2]; amount needed to clear blend of 5% Bio-soft N25-9, 5% Bio-Soft N25-3, 1% trisodium citrate): 5.3 % actives
